Results on five molecules are retold here after patent US20180015054A1, “Method of Maintaining the Anti-Depressant Effect of Ketamine With Lithium” (Icahn School of Medicine at Mount Sinai, priority 2014, published 2018).

One data set relates to PTSD patients. The note with it: three clusters: re-experiencing, avoidance and numbing, hyperarousal; cited from earlier work.
In data set [1] the test system is patients with treatment-resistant major depression (TRD). The data set is described as follows: Planned randomized placebo-controlled double-blind trial of lithium + ketamine in TRD. The data set is classed as in vivo, human.
Source text: A single-site early phase study will enroll patients with treatment-resistant major depression (TRD) in a randomized, placebo (PLC)-controlled, double blind clinical trial of lithium (Li)+ketamine (KET). The study will efficiently test the efficacy of Li compared to PLC in continuing the antidepressant response to KET. The study occurs in several phases. During a Screening phase participants undergo informed consent followed by a thorough medical and psychiatric evaluation. Eligible participants who meet all study inclusion/exclusion criteria receive a single Test KET(ketamine) Infusion to determine antidepressant response status. Non-responders [defined as <50% improvement in depression severity as measured by the Montgomery-Asberg Depression Rating Scale (MADRS) 24 hours following the infusion] are exited from the study and provided with standard of care. KET responders (2:50% improvement in MADRS) proceed to the Li/PLC treatment phase in which participants receive up to 1200 mg/day of Li or matching PLC under double blind conditions. Participants proceed to a 4-week Continuation Phase while remaining on their treatment assignment (Li/PLC) during which time depressive symptoms are monitored twice weekly. The primary outcome is depression severity as measured by the MADRS in the Li compared to PLC group at the 2-week point during the Continuation Phase. […]
The subject of data set [2] is patients with treatment-resistant depression (TRD). The settings on record: cited from earlier work.
The test system of a further data set is depressive symptoms. The settings on record: cited from earlier work.
Data set [3] deals with patients with treatment-resistant major depression. The settings on record: cited from earlier work.
For a further data set, the system named is PTSD symptom severity. The note with it: assessed 24 hours after infusion; cited from earlier work.
For data set [4], the system named is patients with BPD, TRD, MDD and PTSD. The note with it: cited from earlier work.
The test system of data set [5] is patients with treatment-resistant major depression. The note with it: cited from earlier work. This is another data set of the same source.

Regarding `Fc1ccc([C@@H]2CCNC[C@H]2COc2ccc3c(c2)OCO3)cc1` [paroxetine], the “efficacy in PTSD” value in the data set on PTSD patients was “modest effect sizes and limited efficacy”.
Take `O=C([O-])[O-].[Li+].[Li+]` [lithium, lithium carbonate]: the “anticipated maintenance of the ketamine anti-depressant effect” value in data set [1] (ketamine responders receiving lithium, after last dose of ketamine) is “at least two or three months”. In addition, the “expected duration of therapeutic effect of lithium following a response to ketamine” value in data set [1] (lithium carbonate 300-1800 mg daily) is “at least 3 months”.
In the case of `CN[C@H]1CC[C@@H](c2ccc(Cl)c(Cl)c2)c2ccccc21` [sertraline], the “efficacy in PTSD” value in the data set with PTSD patients is “modest effect sizes and limited efficacy”.
As for `Nc1nc2ccc(OC(F)(F)F)cc2s1` [riluzole], the “relapse prevention following ketamine compared to placebo” value in data set [2] (TRD) is “not superior to placebo”; in the data set with depressive symptoms (4-week study), “no benefit of riluzole beyond placebo”.
With `CNC1(c2ccccc2Cl)CCCCC1=O` (centres unmarked) [ketamine], the “cumulative risk of relapse” value in data set [2] (4-week observation period after ketamine) is 62%; in data set [3] (3-month observation period, free of concomitant medication), 70%. The “response rate (reduction of 50% or more on MADRS)” value in data set [2] (26 TRD patients, single open-label IV infusion 0.5 mg/kg) is 65%. Moreover, the “cumulative probability of relapse” value in the data set on depressive symptoms (4-week assessment period after ketamine) is recorded as 73%. In data set [3] (after first ketamine infusion), the “time to rapid improvement in depressive symptoms” value is not above 24 h. In addition, the “median time to relapse” value in data set [3] (following sixth and final ketamine infusion) is 18 days. Besides, in data set [3] (repeated infusions over 2 weeks), the overall response rate is 70.8%. Moreover, the “reduction in PTSD symptom severity compared with midazolam” value with PTSD symptom severity was “significant and rapid reduction”. Further, the “onset of antidepressant effects” value in data set [4] (as early as, following single intravenous administration) is 40 min. Further, in data set [4] (following a single administration), the “duration of antidepressant efficacy” value is “a few days to approximately a week or two”. In addition, the “improvement in MADRS score compared to midazolam group” value in data set [5] (24 hours after single IV infusion 0.5 mg/kg, P<0.001) is “significantly greater improvement”. The “duration of efficacy following a ketamine infusion” value in data set [5] (no longer separated from placebo at 7-day time point) is 1 week. In data set [5] (no patient beyond this time), the “duration of dissociative or psychotomimetic effects” value is not above 2 h. Moreover, the safety and tolerability result in data set [5] (single IV infusion 0.5 mg/kg) was “very safe and well tolerated”.
